Assay results from PMC5904165, “Insight into the cold adaptation and hemicellulose utilization of Cladosporium neopsychrotolerans from genome analysis and biochemical characterization” (Scientific Reports, 2018).
pKi: −log10 of the molar value.

Legend:
Xyl43A [1] = target: T1, Xyl43A; test: inhibition of pNPX hydrolysis, Dixon plot; format: biochemical, Cladosporium neopsychrotolerans; conditions: pNPX substrate, McIlvaine buffer pH 6.8, room temperature, 10 min; mode not stated
T1 construct: intracellular enzyme

Xyl43A [2] = system: T1, Xyl43A; test: p-nitrophenol release, Michaelis-Menten fit; format: biochemical, Cladosporium neopsychrotolerans; conditions: 35 °C (optimum), optimal pH; 1-10 mM pNPX used, so the table's unit mg/mL may be doubtful
Text: p-nitrophenol release, Michaelis-Menten fit on Xyl43A

Row | SMILES | pKi (Xyl43A [1]) | Xyl43A / 35 °C (Topt) (Xyl43A [2]) [mg/mL]
1 | OC1OC[C@@H](O)[C@H](O)[C@H]1O (stereo partly drawn) [D-xylose] | 1.36 | 
2 | O=[N+]([O-])c1ccc(O[C@@H]2OC[C@@H](O)[C@H](O)[C@H]2O)cc1 [pNPX] |  | 2.73 ± 0.37
